Read-outs that look alike come from different tables or passages of the source.
Legend:
IMP-1 = IMP-1 (Serratia marcescens, UniProt P52699); assay: Enzyme activity: determination of IC50, fluorescence assay with CCF2-FA substrate; assay type: biochemical; conditions: CCF2-FA 1.25 μM, 2 hours at 25° C.
Method in brief: (§1)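 100 mM KH2PO4 pH 7 + 0.005% Tween-20 + 10 μM ZnSO4; CCF2-FA 1.25 μM; NDM-1 1 pM, IMP-1 2 pM, VIM-1 30 pM; cpd 20–0.00063 μM final, DMSO 1:50. 2 h, 25° C. Ex 405/em 460 nm; IC50, 4-param fit.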

NDM-1 = NDM-1 (Klebsiella pneumoniae, UniProt C7C422); assay: as above; assay type: biochemical; conditions: CCF2-FA 1.25 μM, 2 hours at 25° C.
Method in brief: as §1

VIM-1 = VIM-1 (Pseudomonas aeruginosa, UniProt A0A0F7KYQ8); assay: as above; assay type: biochemical; conditions: CCF2-FA 1.25 μM, 2 hours at 25° C.
Method in brief: as §1

[1] = tested on: Escherichia coli expressing NDM-1 (CLB30005); assay: Antibiotic potentiation activity: synergistic concentration (MITC95) with imipenem, growth by OD600; assay type: cell-based
Method in brief: (§2)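 MITC95 = lowest inhibitor concentration giving 95% growth inhibition, read by absorbance after 22–24 h at 35° C. Compound range 200 μM to 0.195 μM, imipenem fixed at 1 or 4 μg/ml, bacteria in 1.1×CAMHB from saline suspension diluted 1:100.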

[2] = tested on: Klebsiella pneumoniae expressing VIM-1 (IHMA599644); assay: as above; assay type: cell-based
Method in brief: as §2

[3] = tested on: Serratia marcescens expressing IMP-1 (CL5741); assay: as above; assay type: cell-based
Method in brief: as §2

[4] = IMP-1 enzyme 2 pM, read-out: IMP1 IC50
[5] = NDM-1 enzyme 1 pM, read-out: NDM1 IC50
[6] = VIM-1 enzyme 30 pM, read-out: VIM1 IC50
[7] = E. coli CLB30005 (NDM-1), 95% inhibition of growth
[8] = K. pneumoniae IHMA599644 (VIM-1), 95% inhibition of growth
[9] = S. marcescens CL5741 (IMP-1), 95% inhibition of growth
[10] = enzyme 2 pM, read-out: IMP1 IC50
[11] = enzyme 1 pM, read-out: NDM1 IC50
[12] = enzyme 30 pM, read-out: VIM1 IC50
[13] = 95% inhibition of bacterial growth, strain CLB30005
[14] = 95% inhibition of bacterial growth, strain IHMA599644
[15] = 95% inhibition of bacterial growth, strain CL5741

IMP-1, sequence (P52699 19-246, looked up, species assumed): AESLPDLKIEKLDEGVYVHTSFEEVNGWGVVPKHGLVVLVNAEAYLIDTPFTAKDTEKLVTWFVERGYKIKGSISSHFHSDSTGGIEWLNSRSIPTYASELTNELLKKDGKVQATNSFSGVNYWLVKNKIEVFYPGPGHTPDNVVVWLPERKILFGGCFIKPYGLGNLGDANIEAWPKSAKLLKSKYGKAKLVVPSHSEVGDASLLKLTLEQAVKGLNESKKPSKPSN
NDM-1, sequence (C7C422 29-270, looked up, species assumed): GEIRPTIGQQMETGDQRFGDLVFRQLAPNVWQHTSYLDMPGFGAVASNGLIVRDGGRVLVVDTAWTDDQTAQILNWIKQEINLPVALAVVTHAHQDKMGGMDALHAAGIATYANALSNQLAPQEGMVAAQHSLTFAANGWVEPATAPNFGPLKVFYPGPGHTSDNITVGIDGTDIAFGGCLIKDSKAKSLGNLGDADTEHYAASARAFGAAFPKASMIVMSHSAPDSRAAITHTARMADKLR

| SMILES | IC50 (IMP-1; [4]) | IC50 (NDM-1; [5]) | IC50 (VIM-1; [6]) | NDM1 EC30005 MITC95 [1, 7] | VIM1 KP599644 MITC95 [2, 8] | IMP1 SM5741 MITC95 [3, 9] | IC50 (IMP-1; [10]) | IC50 (NDM-1; [11]) | IC50 (VIM-1; [12]) | NDM1 EC30005 MITC95 [1, 13] | VIM1 KP599644 MITC95 [2, 14] | IMP1 SM5741 MITC95 [3, 15] | IC50 (IMP-1; IMP1 IC50, enzyme 2 pM) | IC50 (NDM-1; NDM1 IC50, enzyme 1 pM) | IC50 (VIM-1; VIM1 IC50, enzyme 30 pM) |
| --- | --- | --- | --- | --- | --- | --- | --- | --- | --- | --- | --- | --- | --- | --- | --- |
| CCC[C@H](C(=O)O)[C@H](Cc1ccc(-c2cnc(C)c(C)n2)cc1)c1nnn[nH]1 [Example 244, (2S)-2-[(1S)-2-[4-(5,6-dimethylpyrazin-2-yl)phenyl]-1-(1H-tetrazol-5-yl)ethyl]pentanoic acid] | 250 nM | 66 nM | 4.8 nM | 9.4 µM | 38 µM | 25 µM |  |  |  |  |  |  |  |  |  |
| CCC[C@H](C(=O)O)[C@H](Cc1ccc(-c2ccc3c(c2)CNC3=O)cc1)c1nnn[nH]1 [Example 234, (2S)-2-[(1S)-2-[4-(1-oxo-2,3-dihydro-1H-isoindol-5-yl)phenyl]-1-(1H-tetrazol-5-yl)ethyl]pentanoic acid] |  |  |  |  |  |  | 56 nM | 17 nM | 2.9 nM | 25 µM | 50 µM | 7.0 µM |  |  |  |
| CC(C)=CCC[C@@H](C(=O)O)[C@H](Cc1ccccc1)c1nnn[nH]1 [Example 14, (2R)-6-methyl-2-[(1S)-2-phenyl-1-(1H-tetrazol-5-yl)ethyl]hept-5-enoic acid] |  |  |  |  |  |  | 1600 nM | 150 nM | 37 nM | 15.6 µM | 100 µM | 200 µM |  |  |  |
| O=C(O)[C@@H](CC1CC1)[C@H](Cc1ccccc1)c1nnn[nH]1 [Example 13, (2S,3S)-2-(cyclopropylmethyl)-4-phenyl-3-(1H-tetrazol-5-yl)butanoic acid] |  |  |  |  |  |  | 460 nM | 128 nM | 16 nM | 12.5 µM | 50 µM | 150 µM |  |  |  |
| CCC[C@H](C(=O)O)[C@H](Cc1ccc(-c2cccc(C3CCCNC3)c2)cc1)c1nn[nH]n1 (stereo partly drawn) [Example 195, (2S)-2-[(1S)-2-(3′-piperidin-3-ylbiphenyl-4-yl)-1-(2H-tetrazol-5-yl)ethyl]pentanoic acid] |  |  |  |  |  |  | 110 nM | 85 nM | 11 nM | 4.7 µM | 38 µM | 28 µM |  |  |  |
| CCC[C@H](C(=O)O)[C@H](Cc1ccc(-c2cncc(N3CCN(C)CC3)c2)cc1)c1nn[nH]n1 [Example 190, (2S)-2-[(1S)-2-{4-[5-(4-methylpiperazin-1-yl)pyridin-3-yl]phenyl}-1-(2H-tetrazol-5-yl)ethyl]pentanoic acid] |  |  |  |  |  |  | 610 nM | 110 nM | 5.4 nM | 9.4 µM | 75 µM | 38 µM |  |  |  |
| CCCC[C@@H](C(=O)O)[C@@H](Cc1ccc(Br)cc1)c1nnn[nH]1 [Example 30, (R)-2-((R)-2-(4-bromophenyl)-1-(1H-tetrazol-5-yl)ethyl)hexanoic acid] |  |  |  |  |  |  |  |  |  | >200 µM | >200 µM | 50 µM | 220 nM | 4700 nM | 240 nM |
| CCC[C@H](C(=O)O)[C@H](Cc1ccc(-c2ccc3c(c2)CNCC3)cc1)c1nnn[nH]1 [Example 236, (2S)-2-[(1S)-2-[4-(1,2,3,4-tetrahydroisoquinolin-7-yl)phenyl]-1-(1H-tetrazol-5-yl)ethyl]pentanoic acid] |  |  |  |  |  |  | 71 nM | 99 nM | 4.4 nM | 12.5 µM | 50 µM | 7.8 µM |  |  |  |
| CCC[C@H](C(=O)O)[C@H](Cc1ccc(-c2cccc(OC3CCNCC3)n2)cc1)c1nn[nH]n1 [Example 194, (2S)-2-[(1S)-2-{4-[6-(piperidin-4-yloxy)pyridin-2-yl]phenyl}-1-(2H-tetrazol-5-yl)ethyl]pentanoic acid] |  |  |  |  |  |  | 640 nM | 170 nM | 6.7 nM | 27 µM | 50 µM | 75 µM |  |  |  |
| CCC[C@H](C(=O)O)[C@H](Cc1ccc(-c2ccc(S(N)(=O)=O)cc2)cc1)c1nn[nH]n1 [Example 197, (2S)-2-[(1S)-2-(4′-sulfamoylbiphenyl-4-yl)-1-(2H-tetrazol-5-yl)ethyl]pentanoic acid] |  |  |  |  |  |  | 28 nM | 4.9 nM | 0.89 nM | 4.7 µM | 18.8 µM | 14 µM |  |  |  |
| CCC[C@H](C(=O)O)[C@H](Cc1ccc(-c2cccc(C(N)=O)c2)cc1)c1nn[nH]n1 [Example 201, (2S)-2-[(1S)-2-(3′-carbamoylbiphenyl-4-yl)-1-(2H-tetrazol-5-yl)ethyl]pentanoic acid] |  |  |  |  |  |  | 29 nM | 9 nM | 2.1 nM | 7.8 µM | 62 µM | 12.5 µM |  |  |  |
| NC(=O)CCCC[C@H](C(=O)O)[C@H](Cc1ccccc1)c1nnn[nH]1 [Example 35, (S)-7-amino-7-oxo-2-((S)-2-phenyl-1-(1H-tetrazol-5-yl)ethyl)heptanoic acid] |  |  |  |  |  |  | 3100 nM | 1400 nM | 210 nM | 100 µM | >200 µM | >200 µM |  |  |  |
| CC(C)=CCCC(C(=O)O)[C@H](Cc1ccccc1)c1nnn[nH]1 (stereo in doubt) [Example 15, (2R)-6-methyl-2-[(1S)-2-phenyl-1-(1H-tetrazol-5-yl)ethyl]hept-5-enoic acid] |  |  |  |  |  |  | 4800 nM | 380 nM | 120 nM | 15.6 µM | 200 µM | >200 µM |  |  |  |
| CCC[C@H](C(=O)O)[C@H](Cc1ccc(Cl)nc1)c1nnn[nH]1 [Example 82, (S)-2-((S)-2-(6-chloropyridin-3-yl)-1-(1H-tetrazol-5-yl)ethyl)pentanoic acid] |  |  |  |  |  |  | 4600 nM | 240 nM | 5.7 nM | 6.2 µM | 25 µM | 200 µM |  |  |  |
| CC(C)CCC[C@H](C(=O)O)[C@H](Cc1ccccc1)c1nnn[nH]1 [Example 1, (S)-6-Methyl-2-((S)-2-phenyl-1-(1H-tetrazol-5-yl)ethyl)heptanoic acid] |  |  |  |  |  |  | 280 nM | 870 nM | > 20000 nM | 75 µM | >200 µM | 138 µM |  |  |  |
| CCC[C@H](C(=O)O)[C@H](Cc1ccc(-c2cccc3c2CNC3=O)cc1)c1nnn[nH]1 [Example 238, (2S)-2-[(1S)-2-[4-(1-oxo-2,3-dihydro-1H-isoindol-4-yl)phenyl]-1-(1H-tetrazol-5-yl)ethyl]pentanoic acid] |  |  |  |  |  |  | 49 nM | 6.5 nM | 1.7 nM | 50 µM | 200 µM | 6.2 µM |  |  |  |
| CC(C)CCCCC[C@H](C(=O)O)[C@H](Cc1ccc2c(c1)OCO2)c1nnn[nH]1 [Example 38, (2S)-2-[(1S)-2-(1,3-benzodioxol-5-yl)-1-(2H-tetrazol-5-yl)ethyl]-8-methylnonanoic acid] |  |  |  |  |  |  | 49 nM | 12 nM | 5.5 nM | 100 µM | >200 µM | 31 µM |  |  |  |
| N#CCCCC[C@H](C(=O)O)[C@H](Cc1ccccc1)c1nnn[nH]1 [Example 33, (S)-6-cyano-2-((S)-2-phenyl-1-(1H-tetrazol-5-yl)ethyl)hexanoic acid] |  |  |  |  |  |  | 2100 nM | 390 nM | 110 nM | 75 µM | >200 µM | 50 µM |  |  |  |
| CCC[C@H](C(=O)O)[C@H](Cc1ccc(-c2cnc3[nH]c(=O)[nH]c3c2)cc1)c1nnn[nH]1 [Example 247, (2S)-2-[(1S)-2-[4-(2-oxo-2,3-dihydro-1H-imidazo[4,5-b]pyridin-6-yl)phenyl]-1-(1H-tetrazol-5-yl)ethyl]pentanoic acid] | 92 nM | 13 nM | 0.64 nM | 31 µM | 100 µM | 16 µM |  |  |  |  |  |  |  |  |  |

From US9839642B2, “Beta-tetrazolyl-propionic acids as metallo-beta-lactamase inhibitors” (priority 2014, dated 2017)
